In patent publication US20130058922A1 (priority 2009, published 2013):
“And” between values parts separate entries of the source, which are not always exact repeats. Identical values can stand only once. Like-named read-outs stand apart in the source and are kept apart here.

How the values were obtained:
[1] = Clinical observation of patients during and after choline infusion therapy (vital parameters, tolerability, condition)
[2] = system: circulating tumour cells (CTCs) in the blood; conditions: in vitro; tumour cells in blood of 13 patients (breast, colon, prostate, pancreas cancer); MAINTRAC
Description: This method allows the detection of smallest amounts of tumour cells in blood and other body fluids (Pachmann K., Clement J. H., Schneider C.-P., Willen B., Camara O., Pachmann U., Hoeffken K., Standardized quantification of circulating peripheral tumour cells from lung and breast cancer. Clin. Chem. Lab-Med., 2005, 43; 617-627).

[3] = system: leukocytes / dysfunctional leukocyte precursors
Procedure: (§1) Depending on the dose, the infusion therapy was applied for 3-5 hours.

[4] = system: circulating tumour cells (CTCs)
Procedure: as §1

[5] = mean of Table 2 leukaemia measurements, one i.v. choline therapy for 3 to 5 hours
[6] = Gastric CA, one i.v. choline therapy for 3 to 5 hours, MainTrac
[7] = Histiocytoma, one i.v. choline therapy for 3 to 5 hours, MainTrac
[8] = Prostate CA, one i.v. choline therapy for 3 to 5 hours, MainTrac
[9] = mean over all tumour types of Table 1, one i.v. choline therapy for 3 to 5 hours, MainTrac

In the case of C[N+](C)(C)CCO [choline], the “changes in vital parameters (RR, pulse, SO2, ECG, temperature)” value ([1]; 9 tumour patients, during and subsequent to i.v. infusion therapy of 3-5 hours) is reported as “no patient showed relevant changes in the vital parameters”, the “tolerability of the infusion therapy” value ([1]; 9 tumour patients, i.v. infusion for 3-5 hours) is reported as “very well tolerated” and the side effects ([1]; in some cases, on the following day, in general only during few hours, depending on the dose) is reported as “nausea and increased temperature”. The cytosensitivity to choline [2] was “up to 95%”, the “Leukocytes, After 4 weeks value” ([3]; leukaemia patient blood, 4 weeks after one i.v. choline therapy) was 281.60 and the “Leukocytes, After − before Δ% before (after 4 weeks)” value ([3]; leukaemia patient blood, 4 weeks after one i.v. choline therapy, compared to the initial value) was −8%. The “Leukocytes after therapy, mean values” ([3]; mean of Table 2 leukaemia measurements, after one i.v. choline therapy for 3 to 5 hours) was 228.53, the “Leukocytes After − before Difference (Δ), mean values” [3, 5] was −25.77 and the “Leukocytes After − before Δ % before, mean values” [3, 5] was −10.00%. The CTCs after therapy ([4]; Gastric CA, after one i.v. choline therapy for 3 to 5 hours, MainTrac) was 1.75 million tumour cells, the “CTCs After − before Difference (Δ)” value [4, 6] was −12.25 million tumour cells and the “CTCs After − before Δ % before” value [4, 6] was −87.00%. The CTCs after therapy ([4]; Histiocytoma, after one i.v. choline therapy for 3 to 5 hours, MainTrac) was 65.00 million tumour cells, the “CTCs After − before Difference (Δ)” value [4, 7] was −307.50 million tumour cells and the “CTCs After − before Δ % before” value [4, 7] was −82.00%. The CTCs after therapy ([4]; Pancreas CA, after one i.v. choline therapy for 3 to 5 hours, MainTrac) was 3.00 million tumour cells and 2.75 million tumour cells, the CTCs after therapy ([4]; Prostate CA, after one i.v. choline therapy for 3 to 5 hours, MainTrac) was 8.75 million tumour cells and the “CTCs After − before Difference (Δ)” value [4, 8] was −3.75 million tumour cells. For the same compound, the “CTCs After − before Δ % before” value [4, 8] was −30.00%, the “After − before Δ% before (after 4 weeks), mean values” ([4]; Table 3 mean of leukaemia patient leukocytes and breast cancer patient CTCs, 4 weeks later) was −40.00% and the “After − before Δ% before, mean values” ([4]; Table 3 mean of leukaemia patient leukocytes and breast cancer patient CTCs, directly after therapy) was −30.00%. For the same compound, the “MainTrac (CTCs), After 4 weeks value” ([4]; breast cancer patient, after another 4 weeks without therapy) was 5.25 million tumour cells, the “MainTrac (CTCs), After − before Δ% before (after 4 weeks)” value ([4]; breast cancer patient, after another 4 weeks without therapy, relative to initial value) was −72.00% and the “CTCs after therapy, mean value” ([4]; mean over all tumour types of Table 1, after one i.v. choline therapy for 3 to 5 hours, MainTrac) was 9.75 million tumour cells. The “CTCs After − before Difference (Δ), mean value” [4, 9] was −37 million tumour cells and −37.00 million tumour cells and the “CTCs After − before Δ % before, mean value” [4, 9] was −54.6%.
